Test results published in ChEMBL document CHEMBL1201862, “PubChem BioAssay data set” (2004).
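Results reflect a 48-hour exposure of cells in 96-well plates to compound at five concentrations. Here, GI50 denotes the concentration required for 50% inhibition of growth.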 The source made the active and inactive calls. No stated cut-off is given here; in the data, active = GI50 up to about 1.1 µM and inactive = higher. Peptide text beside a SMILES is read from it. * marks the point of attachment. Cbz = O=C(OCc1ccccc1)*; CH2Cl = ClC*

How the values were obtained:
Test in all cases: DTP human tumour cell line panel, 48 h
[1] = test system: SK-MEL-28
[2] = test system: RPMI-8226
[3] = test system: NCI-H522
[4] = test system: HOP-92
[5] = test system: NCI/ADR-RES
[6] = test system: Hs-578T
[7] = test system: OVCAR-8
[8] = test system: NCI-H23
[9] = test system: NCI-H460
[10] = test system: HL-60
[11] = test system: HCT-116
[12] = test system: TK-10
[13] = test system: IGROV-1
[14] = test system: HCC 2998
[15] = test system: SK-MEL-5
[16] = test system: DU-145
[17] = test system: SW-620
[18] = test system: PC-3
[19] = test system: M14

Measured: GI50

CC(C)CC(NC(=O)OCc1ccccc1)C(=O)NC(Cc1ccccc1)C(=O)CCl (stereo not drawn) (Cbz-Leu-Phe-CH2Cl; configuration not given here)
inactive: [1] 1.85 µM | [2] 1.61 µM | [3] 1.38 µM | [4] 1.89 µM | [5] 2.44 µM | [6] 4.62 µM | [7] 2.08 µM | [8] 2.03 µM | [9] 6.5 µM | [10] 1.33 µM | [11] 1.68 µM | [12] 1.82 µM | [13] 2 µM | [14] 13.2 µM | [15] 1.82 µM | [16] > 100 µM | [17] 1.57 µM | [18] 4.76 µM | [19] 1.79 µM

c1ccc(-c2cc(C3CO3)c3ccccc3n2)cc1 (configuration not stated)
inactive: [1] 38.5 µM | [2] 21.9 µM | [3] 3.99 µM | [4] 20 µM | [5] 24.3 µM | [6] 29.3 µM | [7] 20 µM | [8] 19.1 µM | [9] 18.8 µM | [10] 26.9 µM | [11] 16.5 µM | [12] 21.6 µM | [13] 17.9 µM | [14] 20 µM | [15] 16.7 µM | [16] 16.9 µM | [17] 27.9 µM | [18] 19.5 µM | [19] 18.9 µM

N#Cc1ccc(NC(=O)C(CC(=O)OCc2ccccc2)NC(=O)OCc2ccccc2)cc1 (configuration not stated)
inactive: [1] > 10 µM | [2] > 10 µM | [3] > 10 µM | [4] > 10 µM | [5] > 10 µM | [6] > 10 µM | [7] > 10 µM | [8] > 10 µM | [9] > 10 µM | [10] > 10 µM | [11] > 10 µM | [12] > 10 µM | [13] > 10 µM | [14] 93.3 µM | [15] 92 µM | [16] 3.72 µM | [17] > 10 µM | [18] > 10 µM | [19] > 10 µM

COc1cc(Br)c(CC2C3=C(CCN2C(=O)C2CCC2)CC(=O)CC3)cc1O (configuration not stated)
inactive: [1] 46.7 µM | [2] 32.7 µM | [3] 14.5 µM | [4] 20.4 µM | [5] 27.5 µM | [6] 26.1 µM | [7] 38 µM | [8] 18.2 µM | [9] 45.3 µM | [10] 5.9 µM | [11] 30.3 µM | [12] 30.4 µM | [13] 36.3 µM | [14] 26.7 µM | [15] 28.6 µM | [16] 49.4 µM | [17] 34.6 µM | [18] 30.7 µM | [19] 33.4 µM

COc1ccc(C(OC(C)=O)C2C(=C(C#N)C#N)c3ccccc3C2=C(C#N)C#N)cc1 (configuration not stated)
inactive: [1] 67.3 µM | [2] 25.5 µM | [3] 38.2 µM | [4] 45.1 µM | [5] 50.1 µM | [6] 35.6 µM | [7] 60.7 µM | [8] 25.9 µM | [9] 28.1 µM | [10] 18.5 µM | [11] 35.1 µM | [12] 83.9 µM | [13] 65.6 µM | [14] 22.6 µM | [15] 48 µM | [16] 64.9 µM | [17] 36.8 µM | [18] 21.8 µM | [19] 40.7 µM

COc1ccc(Nc2nc3cc(C(F)(F)F)ccc3nc2C(=O)O)cc1OC
inactive: [1] 47.5 µM | [2] 25.8 µM | [3] 30.4 µM | [4] 19 µM | [5] 30.8 µM | [6] 52.2 µM | [7] 39.5 µM | [8] 26.4 µM | [9] 37.6 µM | [10] 28.4 µM | [11] 27.4 µM | [12] 34.4 µM | [13] 36.5 µM | [14] 35.7 µM | [15] 22.4 µM | [16] 15.4 µM | [17] 47.2 µM | [18] 36.9 µM | [19] 37.4 µM

C=CCN1C(=O)/C(=C/c2ccco2)N=C1SC/C=C/C
inactive: [1] 46.1 µM | [2] 28 µM | [3] 34 µM | [4] 21.6 µM | [5] 37.1 µM | [6] 53.8 µM | [7] 24.1 µM | [8] 50.9 µM | [9] 57.9 µM | [10] 28.2 µM | [11] 27.5 µM | [12] > 100 µM | [13] 51.2 µM | [14] 93.8 µM | [15] 20.6 µM | [16] > 100 µM | [17] 43.9 µM | [18] 39 µM | [19] 64.1 µM

Nc1nc2ccc(Sc3ccc4nc(N)[nH]c(=O)c4c3)cc2c(=O)[nH]1
inactive: [1] > 100 µM | [2] > 100 µM | [3] > 100 µM | [4] > 100 µM | [5] > 100 µM | [6] > 100 µM | [7] > 100 µM | [8] > 100 µM | [9] > 100 µM | [10] > 100 µM | [11] > 100 µM | [12] > 100 µM | [13] 61.1 µM | [14] > 100 µM | [15] > 100 µM | [16] > 100 µM | [17] > 100 µM | [18] > 100 µM | [19] > 100 µM
